In US7189750B2, “Thiazole-based nitric oxide donors having at least two thiazole moieties and uses thereof” (priority 2004, dated 2007):
Entries after “also recorded” stand apart in the source; their conditions may differ.

Tests used:
[1] = system: isolated rat aorta; assay: In vitro vasorelaxation of epinephrine-contracted rat aortic rings (CCRC); format: cell-based
Source text: Male Sprague Dawley rats were anaesthetized using intraperitoneal injection of ketamine and xylazine (50 and 10 milligram per kilogram, respectively) and the thoracic aorta, the large upper portion of the descending aorta, starting at the caudal border of the chest bone, was removed thereafter, while carefully removing the paraadventetial tissue surrounding the vessel. Aortae were cut into rings of 4–5 millimeters and mounted onto the tissue path. The path buffer (Krebs-bicrbonate) was constantly gassed with carbogen and maintained at 37° C. The rings were preloaded under 2 g tension and equilibrated for 90 minutes, while refreshing the buffer every 15 minutes. After stabilization, the rings were contracted with epinephrine (1 μM). Cumulative Concentration-Response Curves (CCRC) were measured for the vasorelaxing effect induced by adding various concentrations, ranging from 10^−10 M to 10^−5 M of Pet-2, Pet-3, Pet-7, Pet-8, Pet-12, Pet-24, Pet-43, Pet-59, Pet-147, Pet-152 and Pet-154, and glyceryltrinitrate (GTN), according to the procedure described in Feelich et al., Molecular Pharmacology, 56:243–253 (1999). The vehicle, which was used for this experiment was water:ethanol:propyleneglycol at proportional ratio of 1:1:1.
The vasorelaxing effect of the thiazole-derived NO-donors according to the present invention was measured on slices of thoracic aorta of rats contracted with epinephrine, as described hereinabove.

[2] = system: isolated rat aorta; assay: In vitro induction of tolerance and cross-tolerance: vasorelaxation of pre-exposed rat aortic rings; format: cell-based; conditions: for EC50: Rattus norvegicus; for tolerance induction in vitro: rings pre-treated with epinephrine and then with the same compound (0.44 mM)
Description: Aortic rings were prepared as described hereinabove, and were exposed to 0.44 mM GTN (vehicle was water:ethanol:propyleneglycol at proportional ratio of 1:1:1) for 1 hour before CCRC construction, to thereby induce tolerance to nitroglycerine. At the end of the tolerance induction period, rings were thrice washed with the path buffer (Krebs-bicrbonate) every 15 minutes for the following hour and then CCRC for vasorelaxation on GTN-induced tolerance rings were constructed for GTN (pretreated versus untreated rings, FIG. 15), in order to verify the ability to induce and measure GTN tolerance induction in vitro
Attempted induction of tolerance to the NO-donating compounds of the present invention was performed under the same conditions as for GTN. Thus, in an exemplary experiment, rings were exposed to 0.44 mM solution of Pet-3 in the attempt to induce tolerance for Pet-3. CCRC were then measured for the vasorelaxing effect of Pet-3 on a group of rings which were pre-exposed to Pet-3 as to induce tolerance to Pet-3, and for an untreated control group. The above protocol was repeated with Pet-2, Pet-7, Pet-8, Pet-12, Pet-24, Pet-43, Pet-149 and Pet-152.
Cross-tolerance studies were conducted using the same technique described above for measuring vasorelaxation of aortic rings from rats. Two groups of aortic rings samples were pre-treated with GTN, then one group was measured for vasorelaxation by GTN and the second group for vasorelaxation by Pet-12, an exemplary NO-donor according to the present invention. For the opposite cross-tolerance studies, two groups of aortic rings samples were pre-treated with Pet-12, then one group was measured for vasorelaxation by GTN and the second group for vasorelaxation by Pet-12.

[3] = system: c-GMP in slices of thoracic aorta of rats; assay: Cyclic-GMP measurement in aortic rat tissue (radioimmunoassay); format: cell-based; conditions: rat aorta; for cGMP Post-infusion: post-infusion (repeated treatment)
Description: GTN (10^−6 M) was added to the chamber and, 1 minute after exposure to the drug, rings (usually 3–5) were taken, wrapped with aluminum foil and immediately frozen in liquid nitrogen for storage. Control sample group was treated with the vehicle solution only. At the time of analysis, rings were thawed, blotted over a dry gauzed and weighted. A known weight of tissue was homogenized in 2 ml ice-cold modified Hank's balanced salt solution containing (in gram/liter) NaCl 8; KCl 0.4; glucose 1; KH2PO4 0.06; Na2HPO4 0.047; Phenol red 0.017 and further containing 25 mM EDTA (disodium salt). The homogenate was centrifuged at 4000 g (force units) for 10 minutes at 2–4° C. and the supernatant was thereafter transferred into fresh pre-cooled test tube containing 1 ml of acetonitrile. The tubes were vortex mixed for a few seconds and subsequently centrifuged at 4000 g for 5 minutes at 2–4° C., to remove the precipitated protein. Each supernatant was transferred into a clean test tube and evaporated to dryness under a stream of nitrogen at 55° C. The dry residue was reconstituted with 10 volumes of Tris-EDTA buffer pH 7.5 (0.05 M Tris containing 4 mM EDTA). Aliquots of 100 μl of the reconstituted solution in duplicate were used for c-GMP measurements using Amersham RIA kit, as is described in Haj-Yehia & Benet [Pharmacology, 1995, 273, 1, pp. 94–100]. Standard curves were plotted with six concentrations (0, 0.5, 1, 2, 4 and 8 pmoles of c-GMP per tube).
The NO-tolerance effect of GTN and NO-donor compounds according to the present invention was measured by following the production of c-GMP in slices of thoracic aorta of rats. Thus, the production of c-GMP was measured as described in the methods section above for the reference NO-donor compound GTN, and for the NO-donors of the present invention Pet-2, Pet-3, Pet-7, Pet-8, Pet-10, Pet-12, Pet-24, Pet-59, Pet-147, Pet-149, Pet-152, Pet-154 and Pet-155.

[4] = system: Male Sprague Dawley rats; assay: Induction of in vivo nitrate tolerance: cGMP in aorta of rats infused with the compound; design: species or system rat; conditions: for level of cGMP following a repeated treatment in vivo: aorta of rats pre-treated in vivo, re-exposed to 1 μM; for in vivo tolerance induction: cGMP in aorta of rats pre-treated in vivo with the compound, 200 μg/hour for 16 hours
Description: For c-GMP levels and tolerance development, the rat's thoracic aorta was isolated after exposure to the tested compound in vivo, and measured as described above in the in vitro assays.
Male Sprague Dawley rats (220 to 250 grams) were housed under constant temperature and humidity conditions. Light was maintained at a 12/12 light dark cycle. Except for 12 hours before the experiment, when food fasting was initiated, all rats had free access to standard rat pellet diet and tap water. The animals were anesthetized by intraperitoneal injection of ketamine and xylazine combination (50 and 10 milligram per kilogram, respectively). […] The catheters were filled with normal saline solution containing 1000 IU/ml of heparin and plugged with a metal pin. Catheters were externalized to the back of the neck region and secured by a polyester felt disk.
After implantation, the rats were individually housed until they regained their preoperative weight and appeared healthy (3 to 4 days post-operation). At this time point (day 0), an osmotic mini-pump (Alza Corp., Palo Alto, Calif.) delivering constant volume (10 μl/hour) of vehicle or drug was connected to one of the intravenous catheters.
For inducing tolerance to the tested NO-donor according to the present invention, the animals received 200 μg/hour of the tested compound for 16 hours (short-term-induced tolerance). A similar number of animals were processed by the same surgical procedure and received the vehicle alone (10 μl/hour of a solution consisting of 30% ethanol and 30% propylene glycol in sterile distilled water for injection).
At the end of the infusion periods used for the development of tolerance (16 hour), the rats were anesthetized as described above, the two catheters were externalized and the delivering catheters were disconnected from the mini-pump. The abdomen was opened by midline incision and the thoracic aorta were isolated, washed and cleaned from the surrounding tissues. Strips of the treated aortas were pooled in chambers containing Krebs-Hanseliet buffer (10 ml), and exposed to 1 μM of the tested NO-donor (final concentration) for 120 seconds. The tissues were quickly collected and frozen in liquid nitrogen for cGMP measurement, described hereinabove.

[5] = system: anesthetized hypertensive Sprague-Dawley male rats; assay: Hypotensive effects: mean arterial pressure after iv bolus in phenylephrine-treated rats; format: in vivo; conditions: rat
Description: Mean arterial pressure (MAP) was monitored and determined during bolus infusion of Pet-2, Pet-3, Pet-7, Pet-8, Pet-12 and Pet-13. Briefly, polyethylene catheters (PE50) were inserted into the carotid artery and into the jugular vein of anesthetized hypertensive Sprague-Dawley male rats (200–300 grams). A blood pressure recorder was placed within the carotid artery. Phenylephrine (0.1 mg) was then injected and the mean arterial blood pressure (MABP) was monitored continuously until a stable baseline was reached. The hypotensive effects of intravenous (iv) bolus doses (0.1 mg of each tested compound) administered intravenously at the jugular vein in minimal volume of vehicle (0.2 ml per dose) were evaluated. Five minutes were allowed between each dose, during which the maximal decrease in MAP was recorded and a dose-response graph comparing the hypotensive effect of the compounds was constructed.

[6] = vasorelaxation, rat aortic rings contracted with 1 μM epinephrine, 10^−10 M to 10^−5 M, read-out: Concentration
[7] = vasorelaxation, rat aortic rings contracted with 1 μM epinephrine, given as negative log value, read-out: EC50 (converted)
[8] = vasorelaxation of rings pre-exposed to 0.44 mM of the same compound for 1 hour, given as negative log value, read-out: EC50 (converted)
[9] = vasorelaxation of rings pre-exposed to 0.44 mM of the same compound for 1 hour, read-out: Concentration

Row | Compound | EC50 ([1]; Rattus norvegicus) | EC50 ([1]; Rattus norvegicus, read-out: Concentration) | vasorelaxation effect as compared with glyceryltrinitrate ([1]; isolated rat aorta, 1 μM epinephrine) | EC50 ([2]; 1 h) | EC50 ([2]; 1 h, read-out: Concentration) | cGMP Post-infusion [3] | cGMP Pre-infusion [3] | level of cGMP following a repeated treatment in vivo [4] | in vivo tolerance induction [4] | EC50 [1, 6] | EC50 [1, 7] | EC50 [2, 8] | EC50 [2, 9] | tolerance induction in vitro [2] | c-GMP level following a repeated treatment [3] | hypotensive effect on MAP following successive administrations [5] | vasorelaxation in rings pre-treated with GTN (cross-tolerance, words) ([2]; rings made tolerant to GTN) | tolerance after pre-treatment with Pet-12, to itself and to GTN ([2]; rings pre-treated with Pet-12)
1 | CCc1nc(C)c(CCO[N+](=O)[O-])s1 [Pet-2, 2-Ethyl-4-methyl-5-(2-nitrooxy-ethyl)-thiazole] | 0.0251 µM | 0.0251 µM | superior | 0.0398 µM | 0.0398 µM | 140 ± 13 pmol/g tissue | 143 ± 13 pmol/g tissue | remained substantially unchanged | absence of tolerance induction; also recorded: absence of tolerance effect | – | – | – | – | – | – | – | – | –
2 | O=[N+]([O-])OCC(CO[N+](=O)[O-])O[N+](=O)[O-] [GTN, glyceryl trinitrate, reference compound] | – | – | – | – | – | 45 ± 12 pmol/g tissue | 127 ± 11 pmol/g tissue | decreased | tolerance inducing effect | 0.0447 µM | 0.0282 µM | 0.0316 µM | 0.0447 µM | tolerance induced | significantly reduced | attenuation | – | –
3 | Cc1nc(-c2cccnc2)sc1CCO[N+](=O)[O-] [Pet-12, 3-[4-Methyl-5-(2-nitrooxy-ethyl)-thiazole-2-yl]-pyridine] | – | – | – | – | – | 112 ± 12 pmol/g tissue | 127 ± 11 pmol/g tissue | – | absence of tolerance induction; also recorded: absence of tolerance effect; also recorded: lack of tolerance induction | 0.0398 µM | 0.0398 µM | 0.0631 µM | 0.0631 µM | absence of tolerance induction | – | – | absence of tolerance induction effect; also recorded: no effect | absence of tolerance induction effect; also recorded: does not evoke tolerance
